In publication PMC12530842, “Potent, Selective, and Drug‐Like G Protein‐Coupled Receptor Kinase 5 and 6 Inhibitors: Design, Synthesis, and X‐Ray Structural Studies” (Chemmedchem, 2025):
“Also recorded” adds a separate entry of the source.

How the values were obtained:
Type in all cases: biochemical
GRK5 = target: T1, GRK5 (Homo sapiens, UniProt P34947); assay: GRK5 kinase inhibition assay, phosphorylation of tubulin ([γ-32P]-ATP); details: for Selectivity GRK2/GRK5: fold selectivity for GRK5 over GRK2; for IC50: phosphorylation of the soluble substrate tubulin, ± standard deviation from 3 to 4 independent experiments
T1 construct: Human GR K5 (residues 1- 590) w ild- type and D 311N mutant w ere expressed in E. co li Rosetta; His tag (inferred from nickel-NTA purification); made in house; host or cells: E. coli Rosetta (DE3)
T1 sequence (P34947 whole entry, the tested form may be a part): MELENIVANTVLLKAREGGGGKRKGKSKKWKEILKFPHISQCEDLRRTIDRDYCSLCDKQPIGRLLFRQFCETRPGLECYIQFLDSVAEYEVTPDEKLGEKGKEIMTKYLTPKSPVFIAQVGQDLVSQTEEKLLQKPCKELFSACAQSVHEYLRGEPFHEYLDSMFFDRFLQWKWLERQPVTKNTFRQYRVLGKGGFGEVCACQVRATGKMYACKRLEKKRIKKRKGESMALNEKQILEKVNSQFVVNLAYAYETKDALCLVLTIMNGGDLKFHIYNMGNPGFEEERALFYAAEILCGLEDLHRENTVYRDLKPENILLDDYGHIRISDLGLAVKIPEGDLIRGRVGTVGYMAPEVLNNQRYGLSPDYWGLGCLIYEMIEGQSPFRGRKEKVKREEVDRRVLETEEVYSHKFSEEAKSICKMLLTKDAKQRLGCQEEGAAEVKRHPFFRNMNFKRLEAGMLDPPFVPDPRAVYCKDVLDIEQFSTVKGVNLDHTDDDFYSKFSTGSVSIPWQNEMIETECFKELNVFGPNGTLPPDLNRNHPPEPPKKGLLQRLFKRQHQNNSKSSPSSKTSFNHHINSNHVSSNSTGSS
Protocol: (§1) The inhibitory potency of synthetic compounds containing the N‐heterocyclic amide functionalities was evaluated against human GRK2, GRK5 and GRK6 using our in vitro assays‐, as reported previously.^[ [35], [37] ^] […] We then investigated the effect of (R)‐ and (S)‐Boc pyrrolidine carboxamide derivatives. […] These improvements of GRK5 IC50 values over their Boc‐derivatives (6c and 6d) indicated the bulky Boc group may not be able to fit as well in the catalytic site of these GRKs. On the other hand, sterically less demanding acetamide derivatives 6e and 6f were well accommodated consistent with their very good activity against GRK5, GRK6, and GRK2, but only with marginal selectivity against GRK2. […] We also examined the effect of 3(S)‐ and 3(R)‐Boc‐pyrrolidine derivatives.
(§2) Protein expression and purification.
(§3) Human GR K5 (residues 1- 590) w ild- type and D 311N mutant w ere expressed in E. co li Rosetta (D E3) and purified v ia nickel-nitrilotriacetic acid affinity chromatography, followed by tandem columns consisting of a HiTrap Q HP anion exchange chromatography column and a HiTrap SP HP cation exchange chromatography column, and finished by Superdex 200 Increase size -exclusion chromatography, as described previously. Human GRK6 (with T10A and mutations that eliminate palmitoylation sites) was expressed in Sf9 insect cells [ 2] and was purified w ith the same protocol for GR K5 [1]. Human GRK2 w as purified as described previously.
(§4) Kinase inhibition Assays.
(§5) Inhibit ion assays were conducted in a reaction mixture containing 20 mM H EPES pH 7. 0, 2 mM MgC l2, and 0.025% n- dodecyl-β-D-maltoside. Prior to reaction initiation, GR K5 or GR K6 at 50 nM was mixed w ith porcine brain tubulin ( PurSolutions) at a concentration of 500 nM. The assay w as started w ith a 30- second incubation of inhibitors, followed by the add it ion of 5 μ M ATP supplemented w ith radioactive [γ-32P]-AT P a t 60 C i/m mol (PerkinElm er Life Sciences). Re actions pro ceeded for 5 m inut es at ro o m te mpera ture a nd were terminated by adding 4X SDS loading buffer. T he reaction mixtures were then s eparated via SDS - PAG E, dried, and exposed using a phosphor imaging screen. Quantification was performed using a Personal Molecular Imager and Quantity One 1- D Analysis Software. Analogous inhibition assays were conducted on p urified GR K2 wit h a t ub ulin conce ntrat ion of 1 μ M. Data ana lysis was perf orme d usin g Graph Pa d Pr ism, and IC50 values wer e calculated based on three- parameter dose- dependent curves (with a Hill coefficient fixed at 1) plotting phosphate transfer against inhibitor concentration. At least three replicates were conducted to determine the mean and standard deviation of IC50 values as published previously . […]
(§6) (6) The final models w ere validated with MolProbity prior to depos ition along with structure factors in the Protein Data Bank. Atomic figures were created with Py mol (7). Cr ystallographic statistics are reported in Supplemental Table 1. Coordinates for inh ib itor 6t (GRL-098- 22) w ere deposited in the Protein Data Bank, with accession code 9BR K.
(§7) 1. Y. Chen, A. Sonawane, R. Manda, R. K. G adi, J. J. G. Tesmer, A. K. Ghosh. Development of a new class of potent and highly select ive G protein- coupled r eceptor kinase 5 inhibitors and structural insight from crystal structures of inhibitor complexes. Eur. J. Med. Chem. 2024, 264, 115931.
(§8) 2. D. T. Lodowski, V. M. T esmer, J. L. Benovic, J. J. Tesmer. The structure of G protein- coupled receptor kinase (GRK)-6 defines a second lineage of GRKs. J. Bio l. C he m. 2006, 281,16785- 16793.

GRK2 = target: T2, GRK2 (Homo sapiens, UniProt P25098); assay: GRK2 kinase inhibition assay, phosphorylation of tubulin ([γ-32P]-ATP); details: for IC50: phosphorylation of the soluble substrate tubulin, ± standard deviation from 3 to 4 independent experiments
T2 construct: made in house
T2 sequence (P25098 1-689): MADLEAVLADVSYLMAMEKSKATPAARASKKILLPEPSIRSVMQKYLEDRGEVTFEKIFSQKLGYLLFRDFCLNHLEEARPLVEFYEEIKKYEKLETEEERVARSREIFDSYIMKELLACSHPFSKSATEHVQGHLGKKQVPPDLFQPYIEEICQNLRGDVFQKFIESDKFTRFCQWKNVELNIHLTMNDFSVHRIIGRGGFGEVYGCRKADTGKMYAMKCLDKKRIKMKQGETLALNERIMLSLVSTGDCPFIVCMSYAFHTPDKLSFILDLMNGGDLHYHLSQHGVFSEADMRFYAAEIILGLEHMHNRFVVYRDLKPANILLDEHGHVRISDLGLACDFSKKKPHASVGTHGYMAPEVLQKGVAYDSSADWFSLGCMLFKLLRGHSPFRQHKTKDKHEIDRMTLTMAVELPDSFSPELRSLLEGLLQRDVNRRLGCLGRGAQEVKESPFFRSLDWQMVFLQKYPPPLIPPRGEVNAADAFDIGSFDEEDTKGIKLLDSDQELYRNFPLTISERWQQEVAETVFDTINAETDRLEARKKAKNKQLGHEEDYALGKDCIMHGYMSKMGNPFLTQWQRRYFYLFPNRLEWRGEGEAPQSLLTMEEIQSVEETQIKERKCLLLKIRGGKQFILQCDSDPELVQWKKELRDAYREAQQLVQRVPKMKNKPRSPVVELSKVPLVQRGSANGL
Protocol: as §1, §2, §3, §4, §5, §6, §7, §8

GRK6 = target: T3, GRK6 (Homo sapiens, UniProt P43250, C561S/C562S/C565S/T10A); assay: GRK6 kinase inhibition assay, phosphorylation of tubulin ([γ-32P]-ATP); details: for Selectivity GRK5/GRK6: fold selectivity for GRK6 over GRK5; for IC50: phosphorylation of the soluble substrate tubulin, ± standard deviation from 3 to 4 independent experiments
T3 construct: His tag (inferred: purified by the GRK5 protocol, which starts with nickel-NTA); made in house; host or cells: Sf9 insect cells
T3 sequence (P43250 whole entry T10A/C561S/C562S/C565S): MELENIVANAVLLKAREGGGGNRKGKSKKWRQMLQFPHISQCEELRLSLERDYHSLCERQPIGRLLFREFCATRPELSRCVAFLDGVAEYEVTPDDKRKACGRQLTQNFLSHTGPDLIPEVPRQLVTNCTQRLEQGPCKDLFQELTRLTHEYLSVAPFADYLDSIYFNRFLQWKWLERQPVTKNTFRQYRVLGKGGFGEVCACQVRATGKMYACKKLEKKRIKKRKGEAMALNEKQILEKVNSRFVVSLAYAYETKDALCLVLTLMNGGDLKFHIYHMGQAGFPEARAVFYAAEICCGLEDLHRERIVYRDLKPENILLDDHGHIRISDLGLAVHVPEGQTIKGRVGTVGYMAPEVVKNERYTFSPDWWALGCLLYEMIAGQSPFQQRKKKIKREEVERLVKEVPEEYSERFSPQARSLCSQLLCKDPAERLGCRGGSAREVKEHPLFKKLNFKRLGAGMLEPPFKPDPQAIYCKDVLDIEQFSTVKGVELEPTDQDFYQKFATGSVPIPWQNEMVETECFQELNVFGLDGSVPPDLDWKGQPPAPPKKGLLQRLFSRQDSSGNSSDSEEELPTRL
Protocol: as §1, §2, §3, §4, §5, §6, §7, §8

## Cc1[nH]c(/C=C2\C(=O)Nc3ccc(C(=O)N[C@H](C)c4ccc(F)cc4)cc32)c(C)c1NC(=O)[C@H]1CCCNC1 [6q, (Z)‐3‐((3,5‐Dimethyl‐4‐((S)‐Piperidine‐3‐Carboxamido)‐1H‐Pyrrol‐2‐Yl)Methylene)‐N‐((R)‐1‐(4‐Fluorophenyl)Ethyl)‐2‐Oxoindoline‐5‐Carboxamide]
GRK5
  Selectivity GRK2/GRK5: 4 fold
  IC50: 0.03 ± 0.02 µM
GRK2
  IC50: 0.11 ± 0.02 µM
GRK6
  Selectivity GRK5/GRK6: 2 fold
  IC50: 0.016 ± 0.003 µM

## Cc1[nH]c(/C=C2\C(=O)Nc3ccc(C(=O)N[C@H](C)c4ccc(F)cc4)cc32)c(C)c1NC(=O)[C@@H]1C=CCN1 [6j, (Z)‐3‐((4‐((S)‐2,5‐Dihydro‐1H‐Pyrrole‐2‐Carboxamido)‐3,5‐Dimethyl‐1H‐Pyrrol‐2‐Yl)Methylene)‐N‐((R)‐1‐(4‐Fluorophenyl)Ethyl)‐2‐Oxoindoline‐5‐Carboxamide]
GRK5; GRK5 vs GRK2, as stated in text
  selectivity over GRK2: over 15 fold
GRK5
  Selectivity GRK2/GRK5: 16 fold
  IC50: 0.03 ± 0.004 µM
GRK2
  IC50: 0.48 ± 0.4 µM
GRK6
  Selectivity GRK5/GRK6: 1 fold
  IC50: 0.03 ± 0.01 µM

## CC(=O)N1CCC[C@@H]1C(=O)Nc1c(C)[nH]c(/C=C2\C(=O)Nc3ccc(C(=O)N[C@H](C)c4ccc(F)cc4)cc32)c1C [6e, (Z)‐3‐((4‐((R)‐1‐Acetylpyrrolidine‐2‐Carboxamido)‐3,5‐Dimethyl‐1H‐Pyrrol‐2‐Yl)Methylene)‐N‐((R)‐1‐(4‐Fluorophenyl)Ethyl)‐2‐Oxoindoline‐5‐Carboxamide]
GRK5
  Selectivity GRK2/GRK5: 8 fold
  IC50: 0.04 ± 0.006 µM
GRK2
  IC50: 0.32 ± 0.09 µM
GRK6
  Selectivity GRK5/GRK6: 1 fold
  IC50: 0.06 ± 0.02 µM

## Cc1[nH]c(/C=C2\C(=O)Nc3ccc(C(=O)N[C@H](C)c4ccc(F)cc4)cc32)c(C)c1NC(=O)[C@@H]1CNCCN1 [6v, (Z)‐3‐((3,5‐Dimethyl‐4‐((S)‐Piperazine‐2‐Carboxamido)‐1H‐Pyrrol‐2‐Yl)Methylene)‐N‐((R)‐1‐(4‐Fluorophenyl)Ethyl)‐2‐Oxoindoline‐5‐Carboxamide]
GRK5
  Selectivity GRK2/GRK5: 10 fold
  IC50: 0.016 ± 0.0005 µM
GRK2
  IC50: 0.19 ± 0.1 µM
GRK6
  Selectivity GRK5/GRK6: 1 fold
  IC50: 0.026 ± 0.02 µM

## Cc1[nH]c(/C=C2\C(=O)Nc3ccc(C(=O)N[C@H](C)c4ccc(F)cc4)cc32)c(C)c1NC(=O)[C@H]1CN(C(=O)OC(C)(C)C)CCN1 [6s, Tert‐Butyl(R)‐3‐((5‐(((Z)‐5‐(((R)‐1‐(4‐Fluorophenyl)Ethyl)Carbamoyl)‐2‐Oxoindolin‐3‐Ylidene)Methyl)‐2,4‐Dimethyl‐1H‐Pyrrol‐3‐Yl)Carbamoyl)Piperazine‐1‐Carboxylate]
GRK5
  Selectivity GRK2/GRK5: 430 fold
  IC50: 0.081 ± 0.01 µM
GRK2
  IC50: 35 ± 9.4 µM
GRK6
  Selectivity GRK5/GRK6: 1 fold
  IC50: 0.06 ± 0.02 µM

## Cc1[nH]c(/C=C2\C(=O)Nc3ccc(C(=O)N[C@H](C)c4ccc(F)cc4)cc32)c(C)c1NC(=O)[C@@H]1CN(C(=O)OC(C)(C)C)CCN1 [6t, Tert‐Butyl(S)‐3‐((5‐(((Z)‐5‐(((R)‐1‐(4‐Fluorophenyl)Ethyl)Carbamoyl)‐2‐Oxoindolin‐3‐Ylidene)Methyl)‐2,4‐Dimethyl‐1H‐Pyrrol‐3‐Yl)Carbamoyl)Piperazine‐1‐Carboxylate]
GRK5
  Selectivity GRK2/GRK5: >1600 fold
  IC50: 0.6 ± 0.1 µM
GRK2
  IC50: > 1000 µM
GRK6
  Selectivity GRK5/GRK6: 7 fold
  IC50: 0.09 µM

## Cc1[nH]c(/C=C2\C(=O)Nc3ccc(C(=O)N[C@H](C)c4ccc(F)cc4)cc32)c(C)c1NC(=O)[C@@H]1CCN(C(=O)OC(C)(C)C)C1 [6k, Tert‐Butyl(R)‐3‐((5‐(((Z)‐5‐(((R)‐1‐(4‐Fluorophenyl)Ethyl)Carbamoyl)‐2‐Oxoindolin‐3‐Ylidene)Methyl)‐2,4‐Dimethyl‐1H‐Pyrrol‐3‐Yl)Carbamoyl)Pyrrolidine‐1‐Carboxylate]
GRK5
  GRK5 IC50 (in words): low micromolar range
  Selectivity GRK2/GRK5: 140 fold
  IC50: 2.1 ± 0.9 µM
GRK2
  activity against GRK2 (in words): little to no activity
  IC50: 300 ± 100 µM
GRK6
  GRK6 IC50 (in words): low micromolar range
  Selectivity GRK5/GRK6: 1 fold
  IC50: 1.4 ± 0.2 µM

## Cc1[nH]c(/C=C2\C(=O)Nc3ccc(C(=O)N[C@H](C)c4ccc(F)cc4)cc32)c(C)c1NC(=O)[C@H]1CNCCN1 [6u, (Z)‐3‐((3,5‐Dimethyl‐4‐((R)‐Piperazine‐2‐Carboxamido)‐1 H‐Pyrrol‐2‐Yl)Methylene)‐N‐((R)‐1‐(4‐Fluorophenyl)Ethyl)‐2‐Oxoindoline‐5‐Carboxamide]
GRK5
  Selectivity GRK2/GRK5: 15 fold
  IC50: 0.014 ± 0.001 µM
GRK2
  IC50: 0.21 ± 0.1 µM
GRK6
  IC50: 0.05 µM

## Cc1[nH]c(C=C2C(=O)Nc3ccc(C(=O)NC(C)c4ccc(F)cc4)cc32)c(C)c1NC(=O)C1C=CCN1C(=O)OC(C)(C)C [6i, Tert‐Butyl(S)‐2‐((5‐(((Z)‐5‐(((R)‐1‐(4‐Fluorophenyl)Ethyl)Carbamoyl)‐2‐Oxoindolin‐3‐yl‐ Idene)Methyl)‐2,4‐Dimethyl‐1H‐Pyrrol‐3‐Yl)Carbamoyl)‐2,5‐Dihydro‐1H‐Pyrrole‐1‐Carboxylate]
GRK5
  GRK5 IC50 (in words): sub‐micromolar; also recorded: low micromolar range
  Selectivity GRK2/GRK5: 130 fold
  IC50: 0.92 ± 0.5 µM
GRK2
  activity against GRK2 (in words): little to no activity
  IC50: 120 ± 50 µM
GRK6
  GRK6 IC50 (in words): sub‐micromolar; also recorded: low micromolar range
  Selectivity GRK5/GRK6: 2 fold
  IC50: 0.5 ± 0.2 µM

## Cc1[nH]c(/C=C2\C(=O)Nc3ccc(C(=O)N[C@H](C)c4ccc(F)cc4)cc32)c(C)c1NC(=O)[C@@H]1CCCNC1 [6r, (Z)‐3‐((3,5‐Dimethyl‐4‐((R)‐Piperidine‐3‐Carboxamido)‐1H‐Pyrrol‐2‐Yl)Methylene)‐N‐((R)‐1‐(4‐Fluorophenyl)Ethyl)‐2‐Oxoindoline‐5‐Carboxamide]
GRK5
  Selectivity GRK2/GRK5: 20 fold
  IC50: 0.03 ± 0.002 µM
GRK2
  IC50: 0.62 ± 0.3 µM
GRK6
  Selectivity GRK5/GRK6: 1 fold
  IC50: 0.06 ± 0.02 µM

## Cc1[nH]c(/C=C2\C(=O)Nc3ccc(C(=O)N[C@H](C)c4ccc(F)cc4)cc32)c(C)c1NC(=O)[C@H]1CCCN1C(=O)OC(C)(C)C [6c, Tert‐Butyl(R)‐2‐((5‐(((Z)‐5‐(((R)‐1‐(4‐Fluorophenyl)Ethyl)Carbamoyl)‐2‐Oxoindolin‐3‐Ylidene)Methyl)‐2,4‐Dimethyl‐1H‐Pyrrol‐3‐Yl)Carbamoyl)Pyrrolidine‐1‐Carboxylate]
GRK5
  Selectivity GRK2/GRK5: >3 fold
  IC50: 50 ± 30 µM
GRK2
  IC50: 160 ± 100 µM
GRK6
  Selectivity GRK5/GRK6: 35 fold
  IC50: 1.4 ± 0.5 µM
